The values that follow come from patent US5525599A, “7-substituted-amino-3-substituted-3-cephem-4-carboxylic acids” (Eli Lilly and Company, priority 1993, dated 1996).

≈ marks a conversion by molar mass, not a printed value. Read-outs that look alike come from different tables or passages of the source.

In one test the test system is E. coli (EC14). Description: In vitro activity (MIC), agar dilution method. The following applies: Escherichia coli. Type of test: cell-based. As for the experimental part:
(§1) Cephalosporins 9a-o were assayed against a broad array of Gram-positive and Gram-negative bacteria in Mueller-Hinton agar by the 2-fold serial dilution method, (Kirst, H. A.; J. Antibiot. 1982, 35, 1675).
(§2) Test compounds were diluted to an appropriate range of concentrations in 0.1M phosphate buffer (pH 7), incorporated into Mueller-Hinton agar (difco) supplemented with 1% Bacto-Supplement C (Difco) at 50° C. and allowed to solidify in petri dishes. Fresh overnight cultures of test bacteria were diluted to approximately 1×10^4 cells/mL aand applied in […] to the surface of the agar plates. The inoculated plates were incubated overnight at 35° C. in ambient air. MIC endpoints were recorded as the lowest antibiotic concentrations that inhibited the development of visible bacterial growth on the plates.

The test system of the next test is E. coli (N10). Briefly: In vitro activity (MIC), agar dilution method. Type of test: cell-based. The following applies: Escherichia coli. The protocol: as §1, §2
The test system of the next test is E. coli (TEM). Briefly: In vitro activity (MIC), agar dilution method. In kind it is cell-based. The following applies: Escherichia coli. The protocol: as §1, §2
Another test relates to Enter. faecalis (2041). Description: In vitro activity (MIC), agar dilution method. In kind it is cell-based. Conditions: Enterococcus faecalis. The protocol: as §1, §2
The subject of a further test is Enter. faecium (X66). Description: In vitro activity (MIC), agar dilution method. Type of test: cell-based. Conditions: Enterococcus faecium. As for the experimental part:
as §1, §2
On the technique in general: In agar dilution, organisms are placed on agar that contains the substance at set levels.

The next test has as its system H. influenzae (76). Briefly: In vitro activity (MIC), agar dilution method. Type of test: cell-based. The following applies: Haemophilus influenzae. The protocol: as §1, §2
The next test relates to H. influenzae (C.L.). Description: In vitro activity (MIC), agar dilution method. In kind it is cell-based. The following applies: Haemophilus influenzae. As for the experimental part: as §1, §2
The subject of a further test is K. pneumonia (KAE). Briefly: In vitro activity (MIC), agar dilution method. Conditions: Klebsiella pneumoniae. Type of test: cell-based. The protocol:
as §1, §2

Another test relates to K. pneumonia (X26). Description: In vitro activity (MIC), agar dilution method. In kind it is cell-based. Conditions: Klebsiella pneumoniae. As for the experimental part: as §1, §2
For a further test, the system named is K. pneumonia (X68). Description: In vitro activity (MIC), agar dilution method. Type of test: cell-based. The following applies: Klebsiella pneumoniae. The protocol:
as §1, §2

In the next test the test system is Staph. aureus (S13E). Briefly: In vitro activity (MIC), agar dilution method. Type of test: cell-based. The following applies: Staphylococcus aureus. The protocol: as §1, §2
A further test has as its system Staph. aureus (V41). Briefly: In vitro activity (MIC), agar dilution method. Type of test: cell-based. Conditions: Staphylococcus aureus. The protocol:
as §1, §2

The next test relates to Staph. aureus (X1.1). Description: In vitro activity (MIC), agar dilution method. In kind it is cell-based. Conditions: Staphylococcus aureus. The protocol: as §1, §2
Another test deals with Staph. aureus (X400). Briefly: In vitro activity (MIC), agar dilution method. In kind it is cell-based. The following applies: Staphylococcus aureus. As for the experimental part: as §1, §2
In another test the test system is Staph. epiderm. (222). Description: In vitro activity (MIC), agar dilution method. In kind it is cell-based. Conditions: Staphylococcus epidermidis. The protocol:
as §1, §2

A further test has as its system Staph. epiderm. (270). Briefly: In vitro activity (MIC), agar dilution method. In kind it is cell-based. Conditions: Staphylococcus epidermidis, methicillin-resistant strain. As for the experimental part:
as §1, §2

In a further test the test system is Strept. pyogenes (C203). Briefly: In vitro activity (MIC), agar dilution method. In kind it is cell-based. The following applies: Streptococcus pyogenes. The protocol:
as §1, §2

For the next test, the system named is other Gram(-) bacteria. Briefly: In vitro activity (MIC), agar dilution method. Type of test: cell-based.
Test [1] deals with 33 strains of methicillin-resistant staphylococci. Briefly: Geometric mean MICs against 33 strains of methicillin-resistant staphylococci. In kind it is cell-based. The following applies: for MIC: 33 strains, read-out: Geometric mean MIC. The protocol: as §2
It is known that resistance to methicillin in staphylococci is often of the heterogeneous type and therefore not easily detected. […] (Goldstein, F. W.; Acar, J. J. Antimicrob. Chemother. […], 27, 549). […] J.; Drake T. A.; Rusnak, M. G.; Sande, M. A. J. Infect. Dis. 1984, 149, 894).

Test [2] is described as follows: MICs against 4 strains of methicillin-resistant staphylococci. In kind it is cell-based, Staphylococcus aureus and Staphylococcus epidermidis. The following applies: Staphylococcus aureus, read-out: minimal inhibitory concentrations (MICs). The protocol: as §1, §2
Test [3] relates to methicillin-resistant staphylococci. The following applies: in words; Frongillo 1984; cited from earlier work.
Test [4] has the same test system. Conditions: in words; Chambers 1984; cited from earlier work.
Test [5] has the same test system. The following applies: in words; Frongillo 1986; cited from earlier work.
For the next test, the system named is Gram-positive bacteria. Conditions: in words; background statement; cited from earlier work.

As for `CC(=O)OCC1=C(C(=O)O)N2C(=O)[C@@H](NC(=O)Cc3csc(-c4ncccc4O)n3)[C@H]2SC1` [9i, [6R-[6A,7B(R*)]]-3-[(Acetyloxy)methyl]-7-[[[2-(3-hydroxy-2-pyridinyl)-4-thiazolyl]acetyl]amino]-8-oxo-5-thia-1-azabicyclo[4.2.0]oct-2-ene-2-carboxylicAcid], the MIC amounted to 128 µg/mL (≈ 261 µM) against E. coli (EC14); 128 µg/mL (≈ 261 µM) against E. coli (N10); 128 µg/mL (≈ 261 µM) against E. coli (TEM); 8 µg/mL (≈ 16.3 µM) in the test with Enter. faecalis (2041) (Enter. faecalis (2041), agar dilution, read-out: MIC); 8 µg/mL (≈ 16.3 µM) in the test with Enter. faecium (X66) (Enter. faecium (X66), agar dilution, read-out: MIC); 2 µg/mL (≈ 4.08 µM) in the test with H. influenzae (76) (H. influenzae (76), agar dilution, read-out: MIC). Besides, the MIC in the test with H. influenzae (C.L.) (H. influenzae (C.L.), agar dilution, read-out: MIC) is 4 µg/mL (≈ 8.15 µM); in the test on K. pneumonia (KAE), 128 µg/mL (≈ 261 µM); in the test with K. pneumonia (X26) (K. pneumonia (X26), agar dilution, read-out: MIC), 1 µg/mL (≈ 2.04 µM); against K. pneumonia (X68), 128 µg/mL (≈ 261 µM); against Staph. aureus (S13E), 2 µg/mL (≈ 4.08 µM); with Staph. aureus (V41) (Staph. aureus (V41), agar dilution, read-out: MIC), 0.5 µg/mL (≈ 1.02 µM). The MIC is 0.125 µg/mL (≈ 0.255 µM) with Staph. aureus (X1.1) (Staph. aureus (X1.1), agar dilution, read-out: MIC); 4 µg/mL (≈ 8.15 µM) in the test on Staph. aureus (X400) (Staph. aureus (X400), methicillin-resistant strain, agar dilution, read-out: MIC); 0.125 µg/mL (≈ 0.255 µM) in the test on Staph. epiderm. (222) (Staph. epiderm. (222), methicillin-resistant strain, agar dilution, read-out: MIC); 0.5 µg/mL (≈ 1.02 µM) against Staph. epiderm. (270); 0.015 µg/mL (≈ 0.0306 µM) in the test with Strept. pyogenes (C203) (Strept. pyogenes (C203), agar dilution, read-out: MIC); above 64 µg/mL against other Gram(-) bacteria. The MIC in [1] (MHA + 4% NaCl, 35° C.) is 8 µg/mL; in test [1] (MHA), 4.8 µg/mL (≈ 9.79 µM); in test [2] it was at most 16 µg/mL. For the same molecule, the “MICs relative to clinically achievable concentrations for cephalosporins” value in test [1] (in words, 4% NaCl) is “remained in the range usually considered to be clinically achievable concentrations for cephalosporins”. Besides, the “change of MICs in the presence of NaCl” value in test [1] (in words, 4% NaCl) is given as “only slightly elevated in the presence of NaCl”.

As to `Cn1nnnc1SCC1=C(C(=O)O)N2C(=O)[C@@H](NC(=O)[C@H](O)c3ccccc3)[C@H]2SC1` [Cefamandole], the MIC came to 13 µg/mL in test [1] (MHA + 4% NaCl, 35° C.) and 6.8 µg/mL (≈ 14.7 µM) in [1] (MHA). For the same molecule, in test [3], the “activity against methicillin-resistant staphylococci” value is listed as “among the most active β-lactam antibiotics against methicillin-resistant staphylococci”. Also, in [4], the “efficacy in animal models versus vancomycin” value is reported as “poorer efficacy than vancomycin in animal models”. Further, the “clinical use for treatment of infections caused by methicillin-resistant staphylococci” value in test [5] was “successfully used clinically for the treatment of infections caused by methicillin-resistant staphylococci”.

As to `CN[C@H](CC(C)C)C(=O)N[C@H]1C(=O)N[C@@H](CC(N)=O)C(=O)N[C@H]2C(=O)N[C@H]3C(=O)N[C@H](C(=O)N[C@H](C(=O)O)c4cc(O)cc(O)c4-c4cc3ccc4O)[C@H](O)c3ccc(c(Cl)c3)Oc3cc2cc(c3O[C@@H]2O[C@H](CO)[C@@H](O)[C@H](O)[C@H]2O[C@H]2C[C@](C)(N)[C@H](O)[C@H](C)O2)Oc2ccc(cc2Cl)[C@H]1O` [Vanc, Vancomycin, reference compound], the MIC in the test with E. coli (EC14) is 128 µg/mL (≈ 88.3 µM); in the test with E. coli (N10) it was 128 µg/mL (≈ 88.3 µM); with E. coli (TEM), 128 µg/mL (≈ 88.3 µM); in the test with Enter. faecalis (2041), 2 µg/mL (≈ 1.38 µM); in the test on Enter. faecium (X66), 0.5 µg/mL (≈ 0.345 µM); against H. influenzae (76), 128 µg/mL (≈ 88.3 µM). The MIC against H. influenzae (C.L.) was determined as 64 µg/mL (≈ 44.2 µM); in the test on K. pneumonia (KAE) it was 128 µg/mL (≈ 88.3 µM); in the test with K. pneumonia (X26), 128 µg/mL (≈ 88.3 µM); with K. pneumonia (X68) it was 128 µg/mL (≈ 88.3 µM); with Staph. aureus (S13E), 0.5 µg/mL (≈ 0.345 µM); against Staph. aureus (V41), 0.5 µg/mL (≈ 0.345 µM). For the same molecule, the MIC is 0.5 µg/mL (≈ 0.345 µM) in the test on Staph. aureus (X1.1); 0.5 µg/mL (≈ 0.345 µM) against Staph. aureus (X400); 0.5 µg/mL (≈ 0.345 µM) with Staph. epiderm. (222); 0.5 µg/mL (≈ 0.345 µM) in the test on Strept. pyogenes (C203); 128 µg/mL (≈ 88.3 µM) against other Gram(-) bacteria. The “activity against Gram-positive bacteria including methicillin-resistant staphylococci” value in the test with Gram-positive bacteria is listed as “potent activity only against the Gram-positive bacteria including methicillin-resistant staphylococci”.
